In the supplement of paper PMC13380429:

Legend:
Conditions in all cases: 72 h
[1] = tested on: Caco-2; assay: cell viability relative to DMSO; higher = less toxic
[2] = tested on: HepG2; assay: as above
[3] = tested on: U2OS; assay: as above
[4] = tested on: Vero E6; assay: as above
[5] = tested on: Caco-2; assay: relative viability EC50 (midpoint between 100% and the lowest measured viability); higher = less toxic
[6] = tested on: HepG2; assay: as above
[7] = tested on: U2OS; assay: as above
[8] = tested on: Vero E6; assay: as above
[9] = tested on: Caco-2; assay: drug sensitivity score (DSS) for viability; higher = more toxic; extreme values may be limits of the assay
[10] = tested on: HepG2; assay: as above
[11] = tested on: U2OS; assay: as above
[12] = tested on: Vero E6; assay: as above
[13] = tested on: Calu-3; assay: cell viability relative to DMSO; higher = less toxic
[14] = tested on: Calu-3; assay: drug sensitivity score (DSS) for viability; higher = more toxic; extreme values may be limits of the assay
[15] = tested on: Calu-3; assay: relative viability EC50 (midpoint between 100% and the lowest measured viability); higher = less toxic

SMILES: O=C(CC1NCCCC1O)Cn1cnc2cc(Br)c(Cl)cc2c1=O (stereo unspecified) [halofuginone]
- cell viability ([1]; 1 nM): 95%
- cell viability ([1]; 10 nM): 107%
- cell viability ([1]; 100 nM): 81.7%
- cell viability ([1]; 1000 nM): 28.6%
- cell viability ([1]; 10000 nM): 25.1%
- cell viability ([2]; 1 nM): 102%
- cell viability ([2]; 10 nM): 88.9%
- cell viability ([2]; 100 nM): 24.1%
- cell viability ([2]; 1000 nM): 2.9%
- cell viability ([2]; 10000 nM): 0.6%
- cell viability ([3]; 1 nM): 98.9%
- cell viability ([3]; 10 nM): 101%
- cell viability ([3]; 100 nM): 98.1%
- cell viability ([3]; 1000 nM): 32.2%
- cell viability ([3]; 10000 nM): 1.9%
- cell viability ([4]; 1 nM): 99.7%
- cell viability ([4]; 10 nM): 100%
- cell viability ([4]; 100 nM): 42%
- cell viability ([4]; 1000 nM): 11.4%
- cell viability ([4]; 10000 nM): 0%
- relative viability EC50 [5]: 0.183 µM
- relative viability EC50 [6]: 0.0439 µM
- relative viability EC50 [7]: 0.678 µM
- relative viability EC50 [8]: 0.0842 µM
- drug sensitivity score [9]: 15.7
- drug sensitivity score [10]: 27.9
- drug sensitivity score [11]: 13.4
- drug sensitivity score [12]: 24.5

SMILES: CCS(=O)(=O)Nc1ccc2c(c1)/C(=C(/Nc1ccc(CN3CCCCC3)cc1)c1ccccc1)C(=O)N2 [hesperadin]
- cell viability ([1]; 1 nM): 95.1%
- cell viability ([1]; 10 nM): 91.8%
- cell viability ([1]; 100 nM): 90.7%
- cell viability ([1]; 1000 nM): 68.7%
- cell viability ([1]; 10000 nM): 48.4%
- cell viability ([13]; 1 nM): 107%
- cell viability ([13]; 10 nM): 95.7%
- cell viability ([13]; 100 nM): 84.8%
- cell viability ([13]; 1000 nM): 70.3%
- cell viability ([13]; 10000 nM): 62.1%
- cell viability ([2]; 1 nM): 99.1%
- cell viability ([2]; 10 nM): 94.4%
- cell viability ([2]; 100 nM): 58.8%
- cell viability ([2]; 1000 nM): 8.8%
- cell viability ([2]; 10000 nM): 5.1%
- cell viability ([3]; 1 nM): 102%
- cell viability ([3]; 10 nM): 94.3%
- cell viability ([3]; 100 nM): 80%
- cell viability ([3]; 1000 nM): 22.1%
- cell viability ([3]; 10000 nM): 0%
- cell viability ([4]; 1 nM): 92.7%
- cell viability ([4]; 10 nM): 101%
- cell viability ([4]; 100 nM): 82.7%
- cell viability ([4]; 1000 nM): 73.2%
- cell viability ([4]; 10000 nM): 16.9%
- relative viability EC50 [5]: 0.512 µM
- relative viability EC50 [6]: 0.119 µM
- relative viability EC50 [7]: 0.329 µM
- relative viability EC50 [8]: 1.52 µM
- drug sensitivity score [9]: 6.9
- drug sensitivity score [14]: 6.8
- drug sensitivity score [10]: 21.5
- drug sensitivity score [11]: 16.9
- drug sensitivity score [12]: 7.6

SMILES: CC[C@H]1CN2CC[C@H]1C[C@@H]2[C@@H](O)c1ccnc2ccc(OC)cc12 [hydroquinidine]
- cell viability ([1]; 1 nM): 105%
- cell viability ([1]; 10 nM): 106%
- cell viability ([1]; 100 nM): 94.6%
- cell viability ([1]; 1000 nM): 94.7%
- cell viability ([1]; 10000 nM): 87.4%
- cell viability ([2]; 1 nM): 91.7%
- cell viability ([2]; 10 nM): 95.1%
- cell viability ([2]; 100 nM): 101%
- cell viability ([2]; 1000 nM): 89.1%
- cell viability ([2]; 10000 nM): 93.1%
- cell viability ([3]; 1 nM): 99.9%
- cell viability ([3]; 10 nM): 99.4%
- cell viability ([3]; 100 nM): 97.3%
- cell viability ([3]; 1000 nM): 97.8%
- cell viability ([3]; 10000 nM): 98.6%
- cell viability ([4]; 1 nM): 97.4%
- cell viability ([4]; 10 nM): 102%
- cell viability ([4]; 100 nM): 103%
- cell viability ([4]; 1000 nM): 107%
- cell viability ([4]; 10000 nM): 91%
- relative viability EC50 [5]: > 10 µM
- relative viability EC50 [6]: > 10 µM
- relative viability EC50 [7]: > 10 µM
- relative viability EC50 [8]: > 10 µM
- drug sensitivity score [9]: 0.1
- drug sensitivity score [10]: 0
- drug sensitivity score [11]: 0
- drug sensitivity score [12]: 0

SMILES: O=C(O)c1c(Sc2ccccc2)c2cc(Cl)ccc2n1Cc1ccc(Cl)cc1 [nTZDpa]
- cell viability ([1]; 1 nM): 97.1%
- cell viability ([1]; 10 nM): 97%
- cell viability ([1]; 100 nM): 105%
- cell viability ([1]; 1000 nM): 96.6%
- cell viability ([1]; 10000 nM): 90.4%
- cell viability ([2]; 1 nM): 96.9%
- cell viability ([2]; 10 nM): 92.1%
- cell viability ([2]; 100 nM): 96.8%
- cell viability ([2]; 1000 nM): 97.3%
- cell viability ([2]; 10000 nM): 90.7%
- cell viability ([3]; 1 nM): 96.6%
- cell viability ([3]; 10 nM): 101%
- cell viability ([3]; 100 nM): 92.1%
- cell viability ([3]; 1000 nM): 96.2%
- cell viability ([3]; 10000 nM): 101%
- cell viability ([4]; 1 nM): 99.6%
- cell viability ([4]; 10 nM): 96%
- cell viability ([4]; 100 nM): 99.5%
- cell viability ([4]; 1000 nM): 95.4%
- cell viability ([4]; 10000 nM): 89.8%
- relative viability EC50 [5]: > 10 µM
- relative viability EC50 [6]: > 10 µM
- relative viability EC50 [7]: > 10 µM
- relative viability EC50 [8]: > 10 µM
- drug sensitivity score [9]: 0
- drug sensitivity score [10]: 0
- drug sensitivity score [11]: 0
- drug sensitivity score [12]: 0

SMILES: Cc1ccnc2c1NC(=O)c1cccnc1N2C1CC1 [nevirapine]
- cell viability ([1]; 1 nM): 87.3%
- cell viability ([1]; 10 nM): 86.8%
- cell viability ([1]; 100 nM): 101%
- cell viability ([1]; 1000 nM): 97%
- cell viability ([1]; 10000 nM): 100%
- cell viability ([13]; 1 nM): 104%
- cell viability ([13]; 10 nM): 90.6%
- cell viability ([13]; 100 nM): 109%
- cell viability ([13]; 1000 nM): 96.8%
- cell viability ([13]; 10000 nM): 87.8%
- cell viability ([3]; 1 nM): 97.2%
- cell viability ([3]; 10 nM): 101%
- cell viability ([3]; 100 nM): 101%
- cell viability ([3]; 1000 nM): 101%
- cell viability ([3]; 10000 nM): 98.9%
- cell viability ([4]; 1 nM): 94.3%
- cell viability ([4]; 10 nM): 107%
- cell viability ([4]; 100 nM): 96.5%
- cell viability ([4]; 1000 nM): 104%
- cell viability ([4]; 10000 nM): 108%
- relative viability EC50 [5]: > 10 µM
- relative viability EC50 [15]: > 10 µM
- relative viability EC50 [7]: > 10 µM
- relative viability EC50 [8]: > 10 µM
- drug sensitivity score [9]: 0
- drug sensitivity score [14]: 0.2
- drug sensitivity score [11]: 0
- drug sensitivity score [12]: 0

SMILES: NCCCCN [putrescine]
- cell viability ([1]; 1 nM): 118%
- cell viability ([1]; 10 nM): 102%
- cell viability ([1]; 100 nM): 102%
- cell viability ([1]; 1000 nM): 89%
- cell viability ([1]; 10000 nM): 93.1%
- cell viability ([2]; 1 nM): 110%
- cell viability ([2]; 10 nM): 101%
- cell viability ([2]; 100 nM): 110%
- cell viability ([2]; 1000 nM): 97.3%
- cell viability ([2]; 10000 nM): 93%
- cell viability ([3]; 1 nM): 99.2%
- cell viability ([3]; 10 nM): 97.1%
- cell viability ([3]; 100 nM): 97.6%
- cell viability ([3]; 1000 nM): 93.6%
- cell viability ([3]; 10000 nM): 96.7%
- cell viability ([4]; 1 nM): 104%
- cell viability ([4]; 10 nM): 112%
- cell viability ([4]; 100 nM): 100%
- cell viability ([4]; 1000 nM): 98.1%
- cell viability ([4]; 10000 nM): 90.4%
- relative viability EC50 [5]: > 10 µM
- relative viability EC50 [6]: > 10 µM
- relative viability EC50 [7]: > 10 µM
- relative viability EC50 [8]: > 10 µM
- drug sensitivity score [9]: 0.2
- drug sensitivity score [10]: 0
- drug sensitivity score [11]: 0
- drug sensitivity score [12]: 0

SMILES: Fc1ccc(Cn2c(NC3CCNCC3)nc3ccccc32)cc1 [tecastemizole]
- cell viability ([1]; 1 nM): 97.8%
- cell viability ([1]; 10 nM): 98.1%
- cell viability ([1]; 100 nM): 99%
- cell viability ([1]; 1000 nM): 106%
- cell viability ([1]; 10000 nM): 73.3%
- cell viability ([13]; 1 nM): 90.7%
- cell viability ([13]; 10 nM): 99.2%
- cell viability ([13]; 100 nM): 107%
- cell viability ([13]; 1000 nM): 99.5%
- cell viability ([13]; 10000 nM): 102%
- cell viability ([2]; 1 nM): 106%
- cell viability ([2]; 10 nM): 96.6%
- cell viability ([2]; 100 nM): 114%
- cell viability ([2]; 1000 nM): 83.9%
- cell viability ([2]; 10000 nM): 86.2%
- cell viability ([3]; 1 nM): 95%
- cell viability ([3]; 10 nM): 98%
- cell viability ([3]; 100 nM): 96.9%
- cell viability ([3]; 1000 nM): 98.2%
- cell viability ([3]; 10000 nM): 103%
- cell viability ([4]; 1 nM): 104%
- cell viability ([4]; 10 nM): 95.6%
- cell viability ([4]; 100 nM): 101%
- cell viability ([4]; 1000 nM): 90%
- cell viability ([4]; 10000 nM): 98.9%
- relative viability EC50 [15]: > 10 µM
- relative viability EC50 [6]: > 10 µM
- relative viability EC50 [7]: > 10 µM
- relative viability EC50 [8]: > 10 µM
- drug sensitivity score [9]: 0.8
- drug sensitivity score [14]: 0
- drug sensitivity score [10]: 1.4
- drug sensitivity score [11]: 0
- drug sensitivity score [12]: 0

SMILES: CC(C)(C)NCC(O)c1ccccc1Cl (stereo unspecified) [tulobuterol]
- cell viability ([1]; 1 nM): 93.7%
- cell viability ([1]; 10 nM): 89.8%
- cell viability ([1]; 100 nM): 88.1%
- cell viability ([1]; 1000 nM): 79.8%
- cell viability ([1]; 10000 nM): 95.6%
- cell viability ([13]; 1 nM): 94.6%
- cell viability ([13]; 10 nM): 91.1%
- cell viability ([13]; 100 nM): 99.4%
- cell viability ([13]; 1000 nM): 111%
- cell viability ([13]; 10000 nM): 88.4%
- cell viability ([3]; 1 nM): 99.7%
- cell viability ([3]; 10 nM): 95.5%
- cell viability ([3]; 100 nM): 102%
- cell viability ([3]; 1000 nM): 101%
- cell viability ([3]; 10000 nM): 98.6%
- cell viability ([4]; 1 nM): 96.9%
- cell viability ([4]; 10 nM): 98.2%
- cell viability ([4]; 100 nM): 99.7%
- cell viability ([4]; 1000 nM): 96.2%
- cell viability ([4]; 10000 nM): 87%
- relative viability EC50 [5]: > 10 µM
- relative viability EC50 [15]: > 10 µM
- relative viability EC50 [7]: > 10 µM
- relative viability EC50 [8]: > 10 µM
- drug sensitivity score [9]: 0
- drug sensitivity score [14]: 0
- drug sensitivity score [11]: 0
- drug sensitivity score [12]: 0.3
